pIC50, pKi: −log10 of the molar value. Where two headings read alike, the source gives them in different places.
What was measured:
CRTH2 = CRTH2 (Homo sapiens (Human), UniProt Q9Y5Y4); experiment: CRTH2 receptor binding inhibitory activity ([3H]-PGD2 displacement, membranes of CRTH2-expressing K562 cell); conditions: [3H]-PGD2 displacement, membrane of CRTH2-expressing K562 cell, read-out: Ki
Procedure, shortened: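 Incubation ran 60 min at room temperature using 20 μg/well membrane from CRTH2-expressing K562 cells in pH 7.4 Tris/HCl (50 mM) with 10 mM MgCl2.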

Human DP1 receptor = Human DP1 receptor (Homo sapiens (Human), UniProt Q13258); experiment: Human DP1 inhibitory activity in DP1-expressing cell (PGD2-induced cAMP); type: cell-based
Sequence of Human DP1 receptor (Q13258 whole entry): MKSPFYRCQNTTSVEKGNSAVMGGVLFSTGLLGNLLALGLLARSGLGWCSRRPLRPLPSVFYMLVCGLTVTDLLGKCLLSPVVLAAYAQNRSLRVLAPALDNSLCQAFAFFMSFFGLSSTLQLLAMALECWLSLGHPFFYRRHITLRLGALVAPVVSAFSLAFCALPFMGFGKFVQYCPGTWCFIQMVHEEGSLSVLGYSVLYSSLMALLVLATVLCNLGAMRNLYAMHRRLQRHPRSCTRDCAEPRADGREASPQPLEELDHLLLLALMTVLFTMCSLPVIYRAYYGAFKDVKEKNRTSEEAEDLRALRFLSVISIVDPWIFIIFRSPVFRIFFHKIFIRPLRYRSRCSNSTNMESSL
Description: Compounds were categorized as AA (cAMP is less than 100 nM) and A (cAMP is more than 100 nM and less than 5000 nM) as shown in Table 99 and 100.

[1] = CRTH2 receptor binding, categorized AAAA/AAA
[2] = category of cAMP IC50, human DP1 receptor expressing Jurkut cell

Sequence of CRTH2 (Q9Y5Y4 whole entry): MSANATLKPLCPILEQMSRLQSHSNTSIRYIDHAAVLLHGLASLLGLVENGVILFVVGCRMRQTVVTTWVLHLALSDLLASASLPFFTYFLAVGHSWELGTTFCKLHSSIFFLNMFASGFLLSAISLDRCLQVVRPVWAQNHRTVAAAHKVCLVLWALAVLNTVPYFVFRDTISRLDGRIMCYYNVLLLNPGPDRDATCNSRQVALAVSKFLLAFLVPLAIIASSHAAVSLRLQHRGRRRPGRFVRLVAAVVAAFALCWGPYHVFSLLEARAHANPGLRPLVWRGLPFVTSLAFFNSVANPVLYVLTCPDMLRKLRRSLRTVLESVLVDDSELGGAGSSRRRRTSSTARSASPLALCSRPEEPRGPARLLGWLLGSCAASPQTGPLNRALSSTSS

| Structure (SMILES) | pKi (CRTH2; [1]) | pKi (CRTH2) | pIC50 (Human DP1 receptor; [2]) | pIC50 (Human DP1 receptor; IC50 of PGD2 (60 nM)-induced cAMP increase, human DP1 receptor expressing Jurkut cell) |
| --- | --- | --- | --- | --- |
| C[C@H]1C[C@@H](n2nc(CC(=O)O)c3ccc(F)cc32)CCN1S(=O)(=O)c1ccc(F)cc1 [Compound I-77] | > 7.00 | 7.32 | 5.30 to 7.00 | – |
| CC(C)Oc1ccc(S(=O)(=O)N2C[C@@H](C)[C@@H](n3nc(CC(=O)NC#N)c4ccc(F)cc43)C2)cc1 [Compound I-139] | > 7.00 | 7.49 | > 7.00 | – |
| Cc1ccc2c(CC(=O)O)nn([C@H]3CN(S(=O)(=O)c4ccc(OC(C)C)nc4)C[C@H]3C)c2c1 [Compound I-229] | > 7.00 | – | > 7.00 | – |
| CCOc1ccc(S(=O)(=O)N2C[C@@H](C)[C@@H](n3nc(CC(=O)O)c4ccccc43)C2)c(/C=C/CO)c1 [Compound I-279] | > 7.00 | – | 5.30 to 7.00 | – |
| C[C@@H]1CN(S(=O)(=O)c2ccccc2Cl)C[C@@H]1n1nc(CC(=O)O)c2ccc(F)cc21 [Compound I-121] | > 7.00 | – | 5.30 to 7.00 | – |
| CC(C)Oc1ccc(S(=O)(=O)N2C[C@H](n3nc(CC(=O)O)c4ccc(F)cc43)C[C@@H]2C(N)=O)cc1 [Compound I-3] | 5.30 to 7.00 | – | 5.30 to 7.00 | 6.46 |
| Cc1nc2ccc(S(=O)(=O)N3C[C@@H](C)[C@@H](n4nc(CC(=O)O)c5ccccc54)C3)cc2s1 [Compound I-214] | 5.30 to 7.00 | – | > 7.00 | – |
| CCOc1ccc(S(=O)(=O)N2C[C@@H](C)[C@@H](n3nc(CC(=O)O)c4ccccc43)C2)c(CNC(C)=O)c1 [Compound I-259] | > 7.00 | – | 5.30 to 7.00 | – |
| CCOc1ccc(S(=O)(=O)N2C[C@@H](C)[C@@H](n3nc(CC(=O)O)c4ccc(F)cc43)C2)cc1 [Compound I-106] | > 7.00 | – | > 7.00 | – |
| COc1ccc(S(=O)(=O)N2C[C@@H](C)[C@@H](n3nc(CC(=O)O)c4ccccc43)C2)nc1 [Compound I-246] | > 7.00 | – | 5.30 to 7.00 | – |
| CC(C)Oc1ccc(S(=O)(=O)N2C[C@@H](CC(F)F)[C@@H](n3nc(CC(=O)O)c4ccc(F)cc43)C2)cc1 [Compound I-44] | > 7.00 | – | 5.30 to 7.00 | – |
| CC(C)Oc1ccc(S(=O)(=O)N2C[C@H](n3nc(CC(=O)O)c4ccc(F)cc43)C[C@H]2CF)cc1 [Compound I-12] | > 7.00 | – | 5.30 to 7.00 | – |
| CCOc1ncc(S(=O)(=O)N2C[C@@H](C)[C@@H](n3nc(CC(=O)O)c4ccccc43)C2)s1 [Compound I-168] | > 7.00 | – | > 7.00 | – |
| CCOc1ccc(S(=O)(=O)N2C[C@H](n3nc(CC(=O)O)c4ccccc43)C[C@@H]2CF)cc1 [Compound I-209] | 5.30 to 7.00 | – | > 7.00 | – |
| C#Cc1cc(OCC)ccc1S(=O)(=O)N1C[C@@H](C)[C@@H](n2nc(CC(=O)O)c3ccccc32)C1 [Compound I-278] | > 7.00 | – | 5.30 to 7.00 | – |
| CCOc1ccc(S(=O)(=O)N2C[C@H](n3nc(CC(=O)O)c4ccccc43)C(C)(C)C2)cc1 [Compound I-356] | > 7.00 | – | 5.30 to 7.00 | – |
| Cc1ccc2c(CC(=O)O)nn([C@H]3CN(S(=O)(=O)c4ccc(OC(F)(F)F)cc4)C[C@H]3C)c2c1 [Compound I-231] | > 7.00 | – | > 7.00 | – |
| CCOc1cc(F)c(S(=O)(=O)N2C[C@@H](C)[C@@H](n3nc(CC(=O)O)c4ccc(F)cc43)C2)c(F)c1 [Compound I-125] | > 7.00 | – | 5.30 to 7.00 | – |
| CCOc1ccc(S(=O)(=O)N2C[C@@H](C)[C@@H](n3nc(CC(=O)O)c4ccccc43)C2)c(-c2ccccc2)c1 [Compound I-187] | > 7.00 | – | 5.30 to 7.00 | – |
| CCOc1ccc(S(=O)(=O)N2C[C@H](n3nc(CC(=O)O)c4ccccc43)[C@@](C)(F)C2)cc1 (racemic) [Compound I-228] | > 7.00 | – | > 7.00 | – |
| CC(C)Oc1ccc(S(=O)(=O)N2C[C@@H](n3nc(CC(=O)O)c4ccc(F)cc43)C[C@@H]2c2ccccc2F)cc1 [Compound I-301] | 5.30 to 7.00 | – | 5.30 to 7.00 | – |
| CCOc1ccc(S(=O)(=O)N2C[C@@H](C)[C@@H](n3nc(CC(=O)O)c4ccc(F)cc43)C2)nc1 [Compound I-235] | > 7.00 | – | 5.30 to 7.00 | – |
